# According to patent US10835542B2, “9-aminomethyl minocycline compounds and use thereof in treating community-acquired bacterial pneumonia (CABP)” (Paratek Pharmaceuticals, Inc., priority 2016, dated 2020):
# Where “and” joins values, the source holds several entries; their conditions need not be identical. Equal entries are not always repeated. Where two headings read alike, the source gives them in different places.
# Key:
# [1] = Safety assessments in the multiple iv dose BAL study, healthy adult subjects; assay type: in vivo, human; settings: 5 doses of 100 mg iv
# Protocol: Safety assessments included physical examinations, electrocardiograms (ECG), vital signs, standard clinical laboratory evaluations (blood chemistry, hematology), pregnancy testing, and adverse event (AE) and serious adverse event (SAE) monitoring.
# Any subject who received at least 1 dose of test article was included in the evaluation for safety. Safety was assessed by the following measures: Physical exams; AEs and SAEs; Vital signs; Laboratory assessments (Blood samples for hematology, chemistry, and coagulation (prothrombin time only)); ECG; and Pregnancy assessments.
# Subjects were analyzed according to the treatment actually received.
# [2] = Safety and tolerability in the food effect study; assay type: in vivo, human
# Protocol: Safety and tolerability was assessed by: Adverse events (AEs); vital sign measurements at multiple time-points within 24 hours post-dose in each treatment period; and clinical laboratory tests 24 hours post-dose in each treatment period.
# [3] = system: Community-Acquired Bacterial Pneumonia (CABP); experiment: Phase 3 CABP study: Early Clinical Response (72-120 h after first dose); assay type: in vivo, human; settings: ITT
# [4] = Phase 1 multiple oral dose study: urine PK; assay type: in vivo, human
# Protocol: Urine samples were only collected from a subset of subjects because analysis of urine PK was added by an amendment to the study protocol after the study was already underway.
# Additional parameters Ae0-4, Ae4-8, Ae8-12, Ae12-24, and Ae0-24 were also calculated.
# [5] = system: baseline pathogen; assay type: in vivo, human; settings: PTE, microITT
# [6] = system: Haemophilus influenzae; experiment: Clinical success at PTE by baseline pathogen, microITT; assay type: in vivo, human; settings: N1 = 32 (Compound 1), 16 (Moxifloxacin)
# [7] = Lung tissue versus plasma concentrations in mice; settings: mouse
smiles,measurement,setting,value
"CN(C)c1cc(CNCC(C)(C)C)c(O)c2c1C[C@H]1C[C@H]3[C@H](N(C)C)C(O)=C(C(N)=O)C(=O)[C@@]3(O)C(O)=C1C2=O [Compound 1, 9-[(2,2-dimethyl-propylamino)-methyl]-minocycline]",Treatment-emergent adverse events (TEAEs) reported,[1],29%
same,"changes in vital signs, laboratory or ECG parameters",[1],no clinically significant changes
same,discontinuations due to TEAEs,[1],no discontinuations due to TEAEs
same,most common TEAE: headache,[1],12%
same,severe or serious TEAEs,[1],no severe or serious TEAEs
same,tolerability of a single oral dose,[2]; 300 mg oral,well tolerated
same,subjects with treatment emergent AEs,"[2]; 32 subjects, nausea, somnolence, mild, unrelated to study drug",two
same,median change from baseline in heart rate,"[2]; all other treatment groups, all measured time points",≤ 3 bpm
same,serious AE (SAE),[2]; single 300 mg oral dose,no subject experienced a serious AE
same,treatment-related adverse events or clinically relevant changes in laboratory values or vital signs,[2]; single 300 mg oral dose,No treatment-related adverse events
same,"Difference (95% CI) in Early Clinical Success rate, Compound 1 minus moxifloxacin",[3],"−1.6% and −1.6 (−7.1, 3.8) %"
same,Early Clinical Response: Clinical Failure,[3]; 72-120 h after first infusion,49 (12.7) n (%)
same,Early Clinical Response: Clinical Failure or Indeterminate,[3]; 72-120 h after first infusion,73 (18.9) n (%)
same,Early Clinical Response: Clinical Success,[3]; 72-120 h after first infusion,313 (81.1) n (%)
same,Early Clinical Response: Indeterminate,[3]; 72-120 h after first infusion,24 (6.2) n (%)
same,"Ae0-24, Mean (CV)","[4]; 300 mg, Day 1 (n = 2)",20.37 (8.3) mg
same,"Fe0-24, Mean (CV)","[4]; 300 mg, Day 1 (n = 2)",6.79 (8.3) %
same,"Ae0-24, Mean (CV)","[4]; 300 mg, Day 5 (n = 3)",26.14 (14.6) mg
same,"Fe0-24, Mean (CV)","[4]; 300 mg, Day 5 (n = 3)",8.71 (14.6) %
same,"Ae0-24, Mean (CV)","[4]; 450 mg, Day 5 (n = 5)",30.81 (33.0) mg
same,"Fe0-24, Mean (CV)","[4]; 450 mg, Day 5 (n = 5)",6.85 (33.0) %
same,"Ae0-24, Mean (CV)","[4]; 600 mg, Day 1 (n = 1)",31.96 mg
same,"Fe0-24, Mean (CV)","[4]; 600 mg, Day 1 (n = 1)",5.33%
same,"Ae0-24, Mean (CV)","[4]; 600 mg, Day 5 (n = 4)",51.82 (14.8) mg
same,"Fe0-24, Mean (CV)","[4]; 600 mg, Day 5 (n = 4)",8.64 (14.8) %
same,Clinical Success n (%),"[5]; baseline pathogen Acinetobacter baumanii complex, N1 = 0 (Compound 1), 1 (Moxifloxacin)",0 n (%)
same,Clinical Success n (%),"[5]; baseline pathogen Acinetobacter baumanii, N1 = 0 (Compound 1), 1 (Moxifloxacin)",0 n (%)
same,Clinical Success n (%),"[5]; baseline pathogen Acinetobacter junii, N1 = 1 (Compound 1), 0 (Moxifloxacin)",1 (100.0) n (%)
same,Clinical Success n (%),"[5]; baseline pathogen Acinetobacter lwoffii, N1 = 1 (Compound 1), 0 (Moxifloxacin)",1 (100.0) n (%)
same,Clinical Success n (%),"[5]; baseline pathogen Citrobacter braakii, N1 = 0 (Compound 1), 1 (Moxifloxacin)",0 n (%)
same,Clinical Success n (%),"[5]; baseline pathogen Citrobacter freundii, N1 = 0 (Compound 1), 1 (Moxifloxacin)",0 n (%)
same,Clinical Success n (%),"[5]; baseline pathogen Enterobacter cloacae, N1 = 2 (Compound 1), 4 (Moxifloxacin)",2 (100.0) n (%)
same,Clinical Success n (%),"[5]; baseline pathogen Haemophilus haemolyticus, N1 = 1 (Compound 1), 0 (Moxifloxacin)",1 (100.0) n (%)
same,Clinical Success n (%),"[5]; baseline pathogen Haemophilus parahaemolyticus, N1 = 2 (Compound 1), 2 (Moxifloxacin)",2 (100.0) n (%)
same,Clinical Success n (%),"[5]; baseline pathogen Klebsiella oxytoca, N1 = 1 (Compound 1), 4 (Moxifloxacin)",0 n (%)
same,Clinical Success n (%),"[5]; baseline pathogen Morganella morganii, N1 = 1 (Compound 1), 0 (Moxifloxacin)",1 (100.0) n (%)
same,Clinical Success n (%),"[5]; baseline pathogen Neisseria meningitidis, N1 = 1 (Compound 1), 1 (Moxifloxacin)",1 (100.0) n (%)
same,Clinical Success n (%),"[5]; baseline pathogen Prevotella oris, N1 = 0 (Compound 1), 1 (Moxifloxacin)",0 n (%)
same,Clinical Success n (%),"[5]; baseline pathogen Proteus mirabilis, N1 = 2 (Compound 1), 2 (Moxifloxacin)",1 (50.0) n (%)
same,Clinical Success n (%),"[5]; baseline pathogen Pseudomonas aeruginosa, N1 = 3 (Compound 1), 5 (Moxifloxacin)",2 (66.7) n (%)
same,Clinical Success n (%),"[5]; baseline pathogen Pseudomonas putida, N1 = 0 (Compound 1), 1 (Moxifloxacin)",0 n (%)
same,Clinical Success n (%),"[5]; baseline pathogen Serratia marcescens, N1 = 1 (Compound 1), 0 (Moxifloxacin)",1 (100.0) n (%)
same,Clinical Success n (%),"[5]; baseline pathogen Stenotrophomonas maltophilia, N1 = 0 (Compound 1), 2 (Moxifloxacin)",0 n (%)
same,Clinical Success n (%),"[5]; baseline pathogen Streptococcus agalactiae, N1 = 2 (Compound 1), 3 (Moxifloxacin)",2 (100.0) n (%)
same,Clinical Success n (%),"[5]; baseline pathogen Streptococcus anginosus, N1 = 0 (Compound 1), 1 (Moxifloxacin)",0 n (%)
same,Clinical Success n (%),"[5]; baseline pathogen Streptococcus constellatus, N1 = 1 (Compound 1), 1 (Moxifloxacin)",1 (100.0) n (%)
same,Clinical Success n (%),"[5]; baseline pathogen Streptococcus gordonii, N1 = 0 (Compound 1), 1 (Moxifloxacin)",0 n (%)
same,Clinical Success n (%),"[5]; baseline pathogen Streptococcus mitis group, N1 = 1 (Compound 1), 2 (Moxifloxacin)",1 (100.0) n (%)
same,Clinical Success n (%),"[5]; baseline pathogen Streptococcus mitis, N1 = 3 (Compound 1), 5 (Moxifloxacin)",3 (100.0) n (%)
same,Clinical Success n (%),"[5]; baseline pathogen Streptococcus oralis, N1 = 1 (Compound 1), 0 (Moxifloxacin)",1 (100.0) n (%)
same,Clinical Success n (%),"[5]; baseline pathogen Streptococcus parasanguinis, N1 = 0 (Compound 1), 2 (Moxifloxacin)",0 n (%)
same,Clinical Success n (%),"[5]; baseline pathogen Streptococcus salivarius, N1 = 1 (Compound 1), 3 (Moxifloxacin)",1 (100.0) n (%)
same,Clinical Success n (%),"[5]; baseline pathogen Streptococcus sanguinis, N1 = 0 (Compound 1), 2 (Moxifloxacin)",0 n (%)
same,Clinical Success n (%),[6],26 (81.3) n (%)
same,Total number of deaths,ITT population,8
same,"severity of gastrointestinal (GI) adverse events (vomiting, nausea, diarrhea, dyspepsia)",Phase 3 CABP,mild
same,Subjects who died,Safety population,8 (2.1) n (%)
same,Subjects with at least one Adverse Event (AE),Safety population,170 (44.5) n (%)
same,Subjects with at least one Drug-Related Serious TEAE,Safety population,2 (0.5) n (%)
same,Subjects with at least one Drug-Related TEAE,Safety population,39 (10.2) n (%)
same,Subjects with at least one Serious TEAE,Safety population,23 (6.0) n (%)
same,Subjects with at least one Serious TEAE Leading to Death,Safety population,8 (2.1) n (%)
same,Subjects with at least one Serious TEAE Leading to Premature Discontinuation of Test Article,Safety population,10 (2.6) n (%)
same,Subjects with at least one Severe TEAE,Safety population,25 (6.5) n (%)
same,Subjects with at least one TEAE,Safety population,157 (41.1) n (%)
same,Subjects with at least one TEAE Leading to Dose Interruption,Safety population,0 n (%)
same,Subjects with at least one TEAE Leading to Premature Discontinuation of Study,Safety population,7 (1.8) n (%)
same,Subjects with at least one TEAE Leading to Premature Discontinuation of Test Article,Safety population,21 (5.5) n (%)
same,TEAE leading to study drug discontinuation: Diarrhoea,Safety population,0 n (%)
same,TEAE leading to study drug discontinuation: Dyspepsia,Safety population,0 n (%)
same,TEAE leading to study drug discontinuation: Gastrointestinal Disorders,Safety population,2 (0.5) n (%)
same,TEAE leading to study drug discontinuation: Nausea,Safety population,1 (0.3) n (%)
same,TEAE leading to study drug discontinuation: Vomiting,Safety population,2 (0.5) n (%)
same,TEAE: Alanine Aminotransferase Increased,Safety population,14 (3.7) n (%)
same,TEAE: Aspartate Aminotransferase Increased,Safety population,8 (2.1) n (%)
same,TEAE: Clostridium Difficile Colitis,Safety population,0 n (%)
same,TEAE: Clostridium Difficile Infection,Safety population,0 n (%)
same,TEAE: Constipation,Safety population,9 (2.4) n (%)
same,TEAE: Diarrhoea,Safety population,4 (1.0) n (%)
same,TEAE: Dyspepsia,Safety population,4 (1.0) n (%)
same,TEAE: Gamma-Glutamyltransferase Increased,Safety population,10 (2.6) n (%)
same,TEAE: Headache,Safety population,8 (2.1) n (%)
same,TEAE: Hypertension,Safety population,13 (3.4) n (%)
same,TEAE: Insomnia,Safety population,10 (2.6) n (%)
same,TEAE: Nausea,Safety population,9 (2.4) n (%)
same,TEAE: Pseudomembranous Colitis,Safety population,0 n (%)
same,TEAE: Vomiting,Safety population,10 (2.6) n (%)
same,Total Number of AEs,Safety population,434
same,Total Number of TEAEs,Safety population,376
same,Kp,[7],3.7 to 4.4
